Reference: ChEMBL document CHEMBL1134431, “Chemoenzymatic synthesis of functionalized cyclohexylglycines and alpha-methylcyclohexylglycines via Kazmaier-Claisen rearrangement” (Bioorg Med Chem Lett, 2001)

Assays:
Stromelysin-1 = Stromelysin-1 (Homo sapiens, UniProt P08254); assay: Inhibition of Stromelysin (Matrix metalloprotease-3)
[1] = target: 72 kDa type IV collagenase (Homo sapiens, UniProt P08253); assay: Inhibition of gelatinase A (Matrix metalloprotease-2)
Collagenase 3 = Collagenase 3 (Homo sapiens, UniProt P45452); assay: Inhibition of Collagenase 3 (Matrix metalloprotease-13)

Chain of Stromelysin-1 (P08254 whole entry): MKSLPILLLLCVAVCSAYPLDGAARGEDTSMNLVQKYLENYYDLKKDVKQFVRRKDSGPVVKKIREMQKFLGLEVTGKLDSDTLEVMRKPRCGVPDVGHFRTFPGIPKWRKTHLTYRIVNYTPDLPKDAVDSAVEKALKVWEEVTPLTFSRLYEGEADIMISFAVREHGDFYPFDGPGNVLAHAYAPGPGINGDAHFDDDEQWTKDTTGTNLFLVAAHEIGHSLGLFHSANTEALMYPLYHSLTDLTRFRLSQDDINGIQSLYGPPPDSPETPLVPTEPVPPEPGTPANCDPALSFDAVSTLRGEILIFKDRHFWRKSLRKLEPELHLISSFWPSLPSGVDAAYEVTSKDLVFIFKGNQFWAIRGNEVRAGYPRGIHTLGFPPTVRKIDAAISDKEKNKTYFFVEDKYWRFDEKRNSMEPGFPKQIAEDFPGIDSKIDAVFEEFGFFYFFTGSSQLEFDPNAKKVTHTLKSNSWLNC
Chain of 72 kDa type IV collagenase (P08253 whole entry): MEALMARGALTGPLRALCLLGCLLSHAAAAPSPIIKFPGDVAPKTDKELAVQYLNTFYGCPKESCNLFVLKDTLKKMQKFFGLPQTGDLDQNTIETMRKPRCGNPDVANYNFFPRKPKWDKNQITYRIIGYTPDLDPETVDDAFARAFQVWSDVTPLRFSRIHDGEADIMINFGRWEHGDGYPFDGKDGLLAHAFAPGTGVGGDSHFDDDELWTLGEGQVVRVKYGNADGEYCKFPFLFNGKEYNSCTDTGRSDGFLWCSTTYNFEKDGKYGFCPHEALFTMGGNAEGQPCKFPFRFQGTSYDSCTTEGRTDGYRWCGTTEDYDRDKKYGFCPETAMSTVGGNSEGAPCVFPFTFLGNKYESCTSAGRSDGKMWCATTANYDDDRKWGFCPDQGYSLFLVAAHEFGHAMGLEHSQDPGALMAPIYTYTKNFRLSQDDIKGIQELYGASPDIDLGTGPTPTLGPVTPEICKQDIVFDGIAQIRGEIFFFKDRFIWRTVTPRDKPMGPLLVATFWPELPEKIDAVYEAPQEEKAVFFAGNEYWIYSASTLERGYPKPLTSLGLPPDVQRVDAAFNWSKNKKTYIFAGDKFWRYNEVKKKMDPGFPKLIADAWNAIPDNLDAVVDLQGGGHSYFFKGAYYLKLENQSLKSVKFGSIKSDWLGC

IC50 (Stromelysin-1) | IC50 [1] | IC50 (Collagenase 3) | SMILES
2490 nM | 20 nM | 176 nM | COc1ccc(-c2ccc(S(=O)(=O)N[C@@H](C(=O)O)C3C=C[C@@H](O)CC3)cc2)cc1 (some centres not stated)
1220 nM | 12 nM | 30 nM | COc1ccc(-c2ccc(S(=O)(=O)N[C@@H](C(=O)O)C3CCC(O)CC3)cc2)cc1 (some centres not stated)
6150 nM | 251 nM | 338 nM | COc1ccc(-c2ccc(S(=O)(=O)N[C@@](C)(C(=O)O)C3CCC(O)CC3)cc2)cc1 (some centres not stated)

SMILES | IC50 (Stromelysin-1) | IC50 [1] | IC50 (Collagenase 3)
COc1ccc(-c2ccc(S(=O)(=O)N[C@@H](C(=O)O)C3CC[C@H](O)C=C3Br)cc2)cc1 (some centres not stated) | 3800 nM | 38 nM | 131 nM
